What is called solubility is how much of the substance goes into solution per volume. A high value points to much dissolved substance. One may read the logP as a log measure of how a compound divides between an organic and an aqueous phase. A higher logP goes with a more lipophilic compound. The IC50 is the concentration that gives 50% inhibition. What is called Ki is the dissociation constant of the complex between target and ligand, obtained from inhibition or displacement. A lower Ki goes with a stronger hold on the target.

The structures appear in SMILES notation. In brackets after ≈: the same amount, converted by molar mass. Activity calls are given as the source filed them. No cut-off for these calls is given here. Some results are limits rather than exact numbers.

The source of these data is ChEMBL document CHEMBL3102727, “Conformationally constrained ortho-anilino diaryl ureas: discovery of 1-(2-(1'-neopentylspiro[indoline-3,4'-piperidine]-1-yl)phenyl)-3-(4-(trifluoromethoxy)phenyl)urea, a potent, selective, and bioavailable P2Y1 antagonist” (J Med Chem, 2013).

Series [1] can be described thus: Aqueous solubility of the amorphous form of compound in phosphate buffer at pH 6.5. Format: physicochemical.
Series [2] can be described thus: Partition coefficient, log P of the compound at pH 7 by reversed-phase HPLC method. Format: physicochemical. To be noted: octanol/water.
For series [3], the target named is T1, P2Y purinoceptor 1 (Homo sapiens, UniProt P47900). Nature of the series: Antagonist activity at P2Y1 receptor in washed human platelets assessed as 1 uM 2-methylthio-ADP-induced calcium flux by FLIPR assay. Format: functional. A general note: A change in cytosolic calcium serves as a functional read-out for many receptors and channels.
In series [4] the target is T1, P2Y purinoceptor 1. Nature of the series: Displacement of [33P]-2MeS-ADP from human P2Y1 receptor expressed in HEK293 cells after 1 hr by scintillation counting analysis. Format: cell-based.
Series [5] is described as follows: Metabolic stability in mouse liver microsomes assessed as compound remaining after 10 mins. Format: ADME, Microsome. To be noted: read-out: Stability.
A short description of series [6]: Metabolic stability in rat liver microsomes assessed as compound remaining after 10 mins. Format: ADME. To be noted: read-out: Stability. (In general: Liver microsomes are vesicles of endoplasmic reticulum, rich in cytochrome P450 enzymes.)
A short description of series [7]: Metabolic stability in human liver microsomes assessed as compound remaining after 10 mins. Format: ADME. To be noted: read-out: Stability.
Series [8] deals with T1, P2Y purinoceptor 1. Nature of the series: Antagonist activity at P2Y1 receptor in platelet-enriched human plasma assessed as 2.5 uM ADP-induced platelet aggregation preincubated for 1 min followed by ADP induction measured at 5 mins by aggregometric analysis.
Series [9] can be described thus: Aqueous solubility of the of partial crystalline form of compound in phosphate buffer at pH 6.5. Format: physicochemical.
The nature of series [10]: Aqueous solubility of the crystalline form of compound in phosphate buffer at pH 6.5. Format: physicochemical.

T1 sequence (P47900 whole entry): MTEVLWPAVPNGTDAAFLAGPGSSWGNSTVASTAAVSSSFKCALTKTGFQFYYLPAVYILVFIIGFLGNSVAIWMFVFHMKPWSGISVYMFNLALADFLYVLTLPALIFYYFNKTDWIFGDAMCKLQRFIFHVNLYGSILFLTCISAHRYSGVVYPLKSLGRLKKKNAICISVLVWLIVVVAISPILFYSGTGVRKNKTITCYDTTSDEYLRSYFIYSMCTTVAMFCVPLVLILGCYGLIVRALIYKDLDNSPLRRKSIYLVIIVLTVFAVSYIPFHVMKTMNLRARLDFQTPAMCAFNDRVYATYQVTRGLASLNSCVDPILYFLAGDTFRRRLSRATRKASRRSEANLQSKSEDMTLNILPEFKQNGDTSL

In series [1], `CC(C)(C)CN1CCC2(CC1)CN(c1ccccc1NC(=O)Nc1ccc(OC(F)(F)F)cc1)c1ccncc12` yielded a solubility of 0.428 mg/mL (≈ 773 µM). In series [2], the lipophilicity (logP) is listed as 5.1. Further, in [3], the IC50 was found to be 0.346 µM. Also, the affinity in series [4] corresponds to a Ki of 0.617 µM.
For the compound `CC1(C)CCN(c2ccccc2NC(=O)Nc2ccc(OC(F)(F)F)cc2)c2ccccc21`, the remaining at 10 min was determined as 63% in series [5], 6% in series [6] and 51% in [7]. Also, in [2], the logP is on record as more than 6.2. The same compound showed a Ki in series [4] of 0.0073 µM.
As to `CC1(C)CN(c2ccccc2NC(=O)Nc2ccc(OC(F)(F)F)cc2)c2ccccc2O1`, in [4], the Ki stood at 0.039 µM.
Same read-out and setting: the figure for `O=C(Nc1ccc(OC(F)(F)F)cc1)Nc1ccccc1N1CCCCc2ccccc21` is 0.83 µM.
`CN1CCC2(CC1)CN(c1ccccc1NC(=O)Nc1ccc(OC(F)(F)F)cc1)c1ccccc12` displayed a solubility in series [1] of 0.1 mg/mL (≈ 201 µM). Further, in series [2], the logP was determined as 4.6. In addition, the Ki in [4] came to 0.69 µM.
As to `CC1CCN(c2ccccc2NC(=O)Nc2ccc(OC(F)(F)F)cc2)c2ccccc21` (stereo unspecified), in series [4], the affinity corresponds to a Ki of 0.0295 µM.
With `O=C(Nc1ccc(OC(F)(F)F)cc1)Nc1ccccc1-c1cc2ccccc2[nH]1`, the outcome in [8] was inactive. Besides, in series [4], the IC50 was determined as 0.075 µM.
Take `CC(C)(C)CN1CCC2(CC1)CN(c1ccccc1NC(=O)Nc1ccc(OC(F)(F)F)cc1)c1ncccc12`: the IC50 in series [3] is 0.503 µM. The affinity in series [4], expressed as Ki, was 0.253 µM.
Compound `CC(C)CN1CCC2(CC1)CN(c1ccccc1NC(=O)Nc1ccc(OC(F)(F)F)cc1)c1ccccc12` returned a solubility in series [9] of 0.007 mg/mL (≈ 13 µM). Also, the remaining at 10 min was 84% in series [6] and 79% in series [7]. The same compound yielded a logP in series [2] of 5.5. Besides, the affinity in series [4], expressed as Ki, was 0.0207 µM.
Take `CC(C)(C)CN1CCC2(C1)CN(c1ccccc1NC(=O)Nc1ccc(OC(F)(F)F)cc1)c1ccccc12` (stereo unspecified): the solubility in series [1] amounted to 0.001 mg/mL (≈ 1.86 µM). Besides, the logP in series [2] is given as more than 6.2. The compound further gave a Ki in [4] of 0.0058 µM.
In the case of `O=C(Nc1ccc(OC(F)(F)F)cc1)Nc1ccccc1N1CC2(CCCCC2)c2ccccc21`, the solubility in [1] is less than 0.001 mg/mL. In addition, the half-maximal inhibitory concentration (IC50) in [3] stood at 0.0022 µM. Further, in [4], the affinity corresponds to a Ki of 0.0059 µM.
Regarding `O=C(Nc1ccc(OC(F)(F)F)cc1)Nc1ccccc1N1CC2(CCN(C(=O)OCc3ccccc3)CC2)c2ccccc21`, the IC50 in series [3] was 0.0059 µM. The affinity in series [4], expressed as Ki, was 0.0366 µM.
On to `COCCN1CCC2(CC1)CN(c1ccccc1NC(=O)Nc1ccc(OC(F)(F)F)cc1)c1ccccc12`, for which the solubility in series [1] was found to be 0.066 mg/mL (≈ 122 µM). The same compound returned a log partition coefficient (logP) in series [2] of 5.1. The compound also gave a Ki in [4] of 0.39 µM.
`O=C(Nc1ccc(OC(F)(F)F)cc1)Nc1ccccc1N1CC2(CC2)c2ccccc21`: the Ki in [4] was found to be 0.026 µM.
In the case of `CC1(C)CCN(c2ncccc2NC(=O)Nc2ccc(OC(F)(F)F)cc2)c2ccccc21`, in [4], the Ki was 0.016 µM.
In turn, `O=C(Nc1ccc(OC(F)(F)F)cc1)Nc1ccccc1N1CC2(CCNCC2)c2ccccc21` came in with a solubility in series [9] of 0.084 mg/mL (≈ 174 µM). In series [2], the logP amounted to 4.3. In series [4], this compound came in with a Ki of 4.5 µM.
In [1], `CC(C)(C)CN1CCCC2(C1)CN(c1ccccc1NC(=O)Nc1ccc(OC(F)(F)F)cc1)c1ccccc12` (stereo unspecified) registered a solubility of less than 0.001 mg/mL. Further, the logP in series [2] was more than 6.2. The compound further yielded a Ki in series [4] of 0.0128 µM.
The compound `CC(C)(C)CN1CCC2(CC1)CN(c1ccccc1NC(=O)Nc1ccc(OC(F)(F)F)cc1)c1cnccc12` displayed a solubility in series [1] of 0.025 mg/mL (≈ 45.2 µM). Further, the remaining at 10 min in series [6] came out at 73%; in series [7] it was 67%. This compound also gave a logP in series [2] of more than 6. Besides, in [3], the IC50 came to 0.0107 µM. For the same compound, the Ki in series [4] came to 0.0115 µM.
In turn, `CC(C)N1CCC2(CC1)CN(c1ccccc1NC(=O)Nc1ccc(OC(F)(F)F)cc1)c1ccccc12` had a solubility in series [9] of 0.071 mg/mL (≈ 135 µM). In series [2], this compound registered a logP of 4.5.
Take `CC(C)(C)CN1CCC2(CC1)CN(c1ccccc1NC(=O)Nc1ccc(OC(F)(F)F)cc1)c1cccnc12`: the concentration in solution in [1] (solubility) was 0.005 mg/mL (≈ 9.03 µM). Moreover, the logP in series [2] is recorded as more than 6.2. Further, the Ki in series [4] turned out to be 0.0287 µM.
`CC1(C)CN(c2ncccc2NC(=O)Nc2ccc(OC(F)(F)F)cc2)c2ccccc21`: affinity in series [4] was put at a Ki of 0.0203 µM.
Consider `O=C(Nc1ccc(OC(F)(F)F)cc1)Nc1ccccc1N1CC2(CCN(CCO)CC2)c2ccccc21`, for which the solubility in series [9] amounted to 0.123 mg/mL (≈ 234 µM). In addition, the logP in [2] was 4.6. Besides, the Ki in series [4] is 4.5 µM.
For the compound `O=C(Nc1ccc(OC(F)(F)F)cc1)Nc1ccccc1N1CCCc2ccccc21`, in series [4], the Ki was found to be 0.0365 µM.
`CC(C)(C)CN1CCC2(CC1)CCN(c1ccccc1NC(=O)Nc1ccc(OC(F)(F)F)cc1)c1ccccc12` registered a solubility in series [1] of 0.016 mg/mL (≈ 28.2 µM). The remaining at 10 min amounted to 87% in [6] and 90% in series [7]. The compound further yielded a logP in [2] of more than 6.2. The IC50 in series [3] came out at 0.0099 µM. This compound returned an inhibition constant (Ki) in series [4] of 0.0046 µM.
In series [2], `CN1CCN(c2ccccc2NC(=O)Nc2ccc(OC(F)(F)F)cc2)c2ccccc21` registered a logP of 5.5. The Ki in [4] turned out to be 0.094 µM.
Consider `O=C(Nc1ccc(OC(F)(F)F)cc1)Nc1cccnc1-c1cc2ccccc2[nH]1`, for which the result in series [8] was inactive. The compound further displayed an IC50 in [4] of 0.227 µM.
`O=C(Nc1ccc(OC(F)(F)F)cc1)Nc1ccccc1N1CC2(CCCC2)c2ccccc21` yielded a Ki in series [4] of 0.0066 µM.
In [10], `COC(=O)N1CCC2(CC1)CN(c1ccccc1NC(=O)Nc1ccc(OC(F)(F)F)cc1)c1ccccc12` came in with a solubility of 0.001 mg/mL (≈ 1.85 µM). The logP in series [2] is reported as 6. The same compound came in with a Ki in series [4] of 0.0133 µM.
Take `O=C(Nc1ccc(OC(F)(F)F)cc1)Nc1ccccc1N1CC2(CCN(Cc3ccccc3)CC2)c2ccccc21`: in series [9], the solubility was less than 0.001 mg/mL. The logP in [2] is on record as more than 6.3. In series [4], this compound had a Ki of 0.0186 µM.
`O=C(Nc1ccc(OC(F)(F)F)cc1)Nc1ccccc1N1CC2(CCC2)c2ccccc21`: in series [3], the IC50 was 0.0105 µM. In addition, the Ki in series [4] stood at 0.0076 µM.
`CC(C)NC(=O)N1CCC2(CC1)CN(c1ccccc1NC(=O)Nc1ccc(OC(F)(F)F)cc1)c1ccccc12` showed a solubility in series [9] of 0.001 mg/mL (≈ 1.76 µM). Moreover, the logP in series [2] amounted to 5.7. In series [4], this compound registered a Ki of 0.2 µM.
For the compound `O=C(Nc1ccc(OC(F)(F)F)cc1)Nc1ccccc1N1CCOc2ccccc21`, the logP in series [2] was found to be 5.7. In addition, the Ki in series [4] worked out at 0.065 µM.
In turn, `O=C(O)CN1CCC2(CC1)CN(c1ccccc1NC(=O)Nc1ccc(OC(F)(F)F)cc1)c1ccccc12` registered a solubility in series [1] of 0.005 mg/mL (≈ 9.25 µM). The same compound yielded a logP in series [2] of 4.4. This compound also gave a Ki in series [4] of 13.5 µM.
